Reference: PubChem BioAssay AID248 (DTP/NCI, 2004)
Toxic doses and inconclusive results are not listed. Rule as the data show it: active = T/C of 150% or more; inactive = T/C below 125%.

Tested on: L1210 leukemia ip in BDF1 mice, survival T/C
Experiment: NCI In Vivo Anticancer Drug Screen. Data for tumor model L1210 Leukemia (intraperitoneal) in B6D2F1 (BDF1) mice
Conditions: endpoint: mean survival time, higher = longer survival
Procedure, shortened: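 In this screen, tumor-bearing mice given compound are compared to those given vehicle, and their survival values are reported as a treated-to-control quotient.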

[1] = dose: 100.0 mg/kg/injection, schedule: Q01DX009 (ip), vehicle: Klucel (hydroxypropylcellulose) (HPC)
[2] = dose: 200.0 mg/kg/injection, schedule: Q01DX009 (ip), vehicle: Klucel (hydroxypropylcellulose) (HPC)
[3] = dose: 400.0 mg/kg/injection, schedule: Q01DX009 (ip), vehicle: Klucel (hydroxypropylcellulose) (HPC)
[4] = dose: 50.0 mg/kg/injection, schedule: Q04DX003 (ip), vehicle: saline with Tween-80

Measured: T/C

CCCC(=O)C(CCN(C)C)c1ccccn1 (centres undefined)
inactive: dose: 44.0 mg/kg/injection, schedule: Q01DX Z (ip), vehicle: methylcellulose (MC) 94 % of control | dose: 66.0 mg/kg/injection, schedule: Q01DX Z (ip), vehicle: methylcellulose (MC) 107 % of control

c1ccc2cc(C3SCCS3)ccc2c1
inactive: dose: 75.0 mg/kg/injection, schedule: Q04DX003 (ip), vehicle: Klucel (hydroxypropylcellulose) (HPC) 88 % of control | dose: 100.0 mg/kg/injection, schedule: Q01DX001 (ip), vehicle: Klucel (hydroxypropylcellulose) (HPC) 95 % of control | dose: 150.0 mg/kg/injection, schedule: Q04DX003 (ip), vehicle: Klucel (hydroxypropylcellulose) (HPC) 86 % of control | dose: 200.0 mg/kg/injection, schedule: Q01DX001 (ip), vehicle: Klucel (hydroxypropylcellulose) (HPC) 97 % of control | dose: 300.0 mg/kg/injection, schedule: Q04DX003 (ip), vehicle: Klucel (hydroxypropylcellulose) (HPC) 110 % of control | dose: 400.0 mg/kg/injection, schedule: Q01DX001 (ip), vehicle: Klucel (hydroxypropylcellulose) (HPC) 101 % of control

CCC(=O)Nc1ccc(OS(=O)(=O)N(C)C)cc1
inactive: dose: 100.0 mg/kg/injection, schedule: Q01DX001 (ip), vehicle: saline with Tween-80 100 % of control | dose: 200.0 mg/kg/injection, schedule: Q01DX001 (ip), vehicle: saline with Tween-80 95 % of control | dose: 400.0 mg/kg/injection, schedule: Q01DX001 (ip), vehicle: saline with Tween-80 100 % of control

COC(=O)C1OC1C(=O)OC (centres undefined)
inactive: [1] 91 % of control | dose: 100.0 mg/kg/injection, schedule: Q01DX009 (ip), vehicle: saline 101 % of control | [2] 96 % of control | dose: 200.0 mg/kg/injection, schedule: Q01DX009 (ip), vehicle: saline 100 % of control | [3] 102 % of control | dose: 400.0 mg/kg/injection, schedule: Q01DX009 (ip), vehicle: saline 92 % of control

C/C=C\CCCCCCC
inactive: dose: 50.0 mg/kg/injection, schedule: Q01DX001 (ip), vehicle: carboxymethylcellulose (CMC) 90 % of control | dose: 100.0 mg/kg/injection, schedule: Q01DX001 (ip), vehicle: carboxymethylcellulose (CMC) 90 % of control | dose: 200.0 mg/kg/injection, schedule: Q01DX001 (ip), vehicle: carboxymethylcellulose (CMC) 95 % of control | dose: 400.0 mg/kg/injection, schedule: Q01DX001 (ip), vehicle: carboxymethylcellulose (CMC) 90 % of control

CC(C)(C)NC(=O)Cc1ccccc1
inactive: [4] 97 % of control | dose: 100.0 mg/kg/injection, schedule: Q04DX003 (ip), vehicle: saline with Tween-80 98 % of control | dose: 200.0 mg/kg/injection, schedule: Q04DX003 (ip), vehicle: saline with Tween-80 103 % of control

Cc1ccc(NC(=O)NC(C)C)c(C)c1
inactive: dose: 12.5 mg/kg/injection, schedule: Q04DX003 (ip), vehicle: saline with Tween-80 96 % of control | dose: 25.0 mg/kg/injection, schedule: Q04DX003 (ip), vehicle: saline with Tween-80 98 % of control | [4] 104 % of control | dose: 400.0 mg/kg/injection, schedule: Q04DX003 (ip), vehicle: saline with Tween-80 90 % of control

Cc1cn(C2SC(CO)C(O)C2O)c(=O)[nH]c1=O (centres undefined)
inactive: dose: 50.0 mg/kg/injection, schedule: Q01DX001 (ip), vehicle: saline 97 % of control | dose: 100.0 mg/kg/injection, schedule: Q01DX001 (ip), vehicle: saline 105 % of control | dose: 200.0 mg/kg/injection, schedule: Q01DX001 (ip), vehicle: saline 100 % of control | dose: 400.0 mg/kg/injection, schedule: Q01DX001 (ip), vehicle: saline 100 % of control

CCOCCOCCOCCOc1ccc2c(c1)OCO2
inactive: dose: 100.0 mg/kg/injection, schedule: Q04DX002 (ip), vehicle: saline 95 % of control | dose: 200.0 mg/kg/injection, schedule: Q04DX002 (ip), vehicle: saline 88 % of control | dose: 400.0 mg/kg/injection, schedule: Q04DX002 (ip), vehicle: saline 107 % of control

CC(=O)OC1CCC2(C)C(CCC3C2CCC2(C)C(C(C)=O)CCC32)C1 (centres undefined)
inactive: dose: 100.0 mg/kg/injection, schedule: Q01DX009 (sc), vehicle: steriod suspending solution 95 % of control | dose: 200.0 mg/kg/injection, schedule: Q01DX009 (sc), vehicle: steriod suspending solution 95 % of control | dose: 400.0 mg/kg/injection, schedule: Q01DX009 (sc), vehicle: steriod suspending solution 90 % of control

COc1ccc([N+](=O)[O-])cc1CN(C)C(C)C
inactive: dose: 12.5 mg/kg/injection, schedule: Q01DX009 (ip), vehicle: Klucel (hydroxypropylcellulose) (HPC) 97 % of control | dose: 12.5 mg/kg/injection, schedule: Q04DX003 (ip), vehicle: Klucel (hydroxypropylcellulose) (HPC) 97 % of control | dose: 25.0 mg/kg/injection, schedule: Q01DX009 (ip), vehicle: Klucel (hydroxypropylcellulose) (HPC) 97 % of control | dose: 25.0 mg/kg/injection, schedule: Q04DX003 (ip), vehicle: Klucel (hydroxypropylcellulose) (HPC) 100 % of control | dose: 50.0 mg/kg/injection, schedule: Q01DX009 (ip), vehicle: Klucel (hydroxypropylcellulose) (HPC) 92 % of control | dose: 50.0 mg/kg/injection, schedule: Q04DX003 (ip), vehicle: Klucel (hydroxypropylcellulose) (HPC) 97 % of control

CCCCCCCCCCCCCCCCS(=O)(=O)c1ccccc1NC(N)=O
inactive: dose: 100.0 mg/kg/injection, schedule: Q04DX003 (ip), vehicle: Klucel (hydroxypropylcellulose) (HPC) 97 % of control | dose: 200.0 mg/kg/injection, schedule: Q04DX003 (ip), vehicle: Klucel (hydroxypropylcellulose) (HPC) 98 % of control | dose: 400.0 mg/kg/injection, schedule: Q04DX003 (ip), vehicle: Klucel (hydroxypropylcellulose) (HPC) 95 % of control

Cc1nc2nc(=S)[nH]c(N)c2nc1C
inactive: dose: 16.0 mg/kg/injection, schedule: Q01DX Z (ip), vehicle: methylcellulose (MC) 86 % of control | dose: 31.0 mg/kg/injection, schedule: Q01DX Z (ip), vehicle: methylcellulose (MC) 91 % of control | dose: 62.0 mg/kg/injection, schedule: Q01DX Z (ip), vehicle: methylcellulose (MC) 88 % of control | dose: 125.0 mg/kg/injection, schedule: Q01DX Z (ip), vehicle: methylcellulose (MC) 95 % of control

COc1ccc(/C=N/NC(=O)c2ccc(Cl)c(Cl)c2)cc1
inactive: [1] 91 % of control | [2] 100 % of control | [3] 90 % of control

CCCC/C(=N\OP(=O)(OCC)OCC)c1ccccc1
inactive: dose: 75.0 mg/kg/injection, schedule: Q01DX001 (ip), vehicle: saline 101 % of control | dose: 150.0 mg/kg/injection, schedule: Q01DX001 (ip), vehicle: saline 107 % of control | dose: 300.0 mg/kg/injection, schedule: Q01DX001 (ip), vehicle: saline 91 % of control

CN(C)/N=C/c1ccc(-c2ccccc2)cc1
inactive: dose: 100.0 mg/kg/injection, schedule: Q01DX009 (ip), vehicle: saline with Tween-80 95 % of control | dose: 200.0 mg/kg/injection, schedule: Q01DX009 (ip), vehicle: saline with Tween-80 111 % of control | dose: 400.0 mg/kg/injection, schedule: Q01DX009 (ip), vehicle: saline with Tween-80 102 % of control

O=C(NCCCCCCCCNC(=O)N1CC1)N1CC1
inactive: dose: 0.19 mg/kg/injection, schedule: Q01DX009 (ip), vehicle: carboxymethylcellulose (CMC) 101 % of control | dose: 0.29 mg/kg/injection, schedule: Q01DX001 (ip), vehicle: carboxymethylcellulose (CMC) 98 % of control | dose: 0.29 mg/kg/injection, schedule: Q01DX009 (ip), vehicle: carboxymethylcellulose (CMC) 113 % of control | dose: 0.44 mg/kg/injection, schedule: Q01DX001 (ip), vehicle: carboxymethylcellulose (CMC) 95 % of control | dose: 0.44 mg/kg/injection, schedule: Q01DX009 (ip), vehicle: carboxymethylcellulose (CMC) 111 % of control | dose: 0.66 mg/kg/injection, schedule: Q01DX001 (ip), vehicle: carboxymethylcellulose (CMC) 96 % of control | dose: 0.66 mg/kg/injection, schedule: Q01DX009 (ip), vehicle: carboxymethylcellulose (CMC) 108 % of control | dose: 1.0 mg/kg/injection, schedule: Q01DX001 (ip), vehicle: carboxymethylcellulose (CMC) 101 % of control | dose: 1.0 mg/kg/injection, schedule: Q01DX009 (ip), vehicle: carboxymethylcellulose (CMC) 119 % of control | dose: 1.5 mg/kg/injection, schedule: Q01DX009 (ip), vehicle: carboxymethylcellulose (CMC) 109 % of control | dose: 2.25 mg/kg/injection, schedule: Q01DX009 (ip), vehicle: carboxymethylcellulose (CMC) 112 % of control | dose: 6.2 mg/kg/injection, schedule: Q01DX001 (ip), vehicle: carboxymethylcellulose (CMC) 102 % of control

CC[N+](C)(CC)CCN1C(=O)c2ccccc2S1(=O)=O
inactive: dose: 44.0 mg/kg/injection, schedule: Q01DX Z (ip), vehicle: saline 108 % of control | dose: 66.0 mg/kg/injection, schedule: Q01DX Z (ip), vehicle: saline 98 % of control
